Reference: patent US20160362416A1, “ANTIVIRAL COMPOUNDS” (Gilead Sciences, Inc., priority 2012, published 2016)

How the values were obtained:
[1] = test system: stable HCV 1b RLuc replicon cells (genotype 1b Con1 replicon); assay: HCV genotype 1b RLuc replicon reporter assay; assay type: cell-based; conditions: Hepatitis C virus; stable genotype 1b Con1 RLuc replicon cells, 72 hours
Procedure, shortened: (§1)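 EC50 derived by non-linear regression of Renilla luciferase signal measured in lysates 72 h after adding 3-fold serial compound dilutions. Replicons: stable genotype 1b Con1 cells; transient Huh-Lunet transfections of NS5A chimeras—4a ED43 or 3a S52 in Con1, 2b MD2b-1 (M31) in JFH-1.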

[2] = test system: stable HCV 1a RLuc replicon cells (genotype 1a H77 replicon); assay: HCV genotype 1a RLuc replicon reporter assay; assay type: cell-based; conditions: Hepatitis C virus; stable genotype 1a H77 RLuc replicon cells, 72 hours
[3] = test system: NS5A chimeric genotype 2a JFH-1 replicon with genotype 2a J6 strain NS5A gene (M31); assay: HCV genotype 2a J6 NS5A chimeric replicon assay, transient (t); assay type: cell-based; conditions: Hepatitis C virus, 72 h, read-out: 2a J6 (t) (nM)
[4] = test system: NS5A chimeric genotype 2a JFH-1 replicon with genotype 2b MD2b-1 strain NS5A gene (M31); assay: HCV genotype 2b NS5A chimeric replicon assay, stable (s); assay type: cell-based; conditions: Hepatitis C virus, 72 h, read-out: 2b (s) (nM)
[5] = test system: NS5A chimeric genotype 1b Con1 replicon with genotype 3a S52 strain NS5A gene; assay: HCV genotype 3a NS5A chimeric replicon assay; assay type: cell-based; conditions: Hepatitis C virus, 72 h, read-out: 3a (nM)
Procedure, shortened: as §1

[6] = test system: NS5A chimeric genotype 1b Con1 replicon with genotype 4a ED43 strain NS5A gene; assay: HCV genotype 4a NS5A chimeric replicon assay; assay type: cell-based; conditions: Hepatitis C virus, 72 h, read-out: 4a (s) (nM)
[7] = test system: Q30E in genotype 1a NS5A replicon; assay: Resistance mutant replicon assay, genotype 1a NS5A Q30E; assay type: cell-based, HCV; conditions: Hepatitis C virus, read-out: 1a Q30E (nM)
Procedure, shortened: (§2)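 Renilla luciferase activity in lysed cells after 72 h with 3-fold serially diluted compound gave EC50 by non-linear regression. Cells were Huh-7-derived cured-51, transiently transfected with mutant replicon RNA (1a or 1b Pi-RLuc backbone; 3a NS5A in 1b chimera) made by site-directed mutagenesis.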

[8] = test system: Y93H in genotype 1a NS5A replicon; assay: Resistance mutant replicon assay, genotype 1a NS5A Y93H; assay type: cell-based, HCV; conditions: Hepatitis C virus, read-out: 1a Y93H (nM)
Procedure, shortened: as §2

[9] = test system: Y93H in genotype 3a NS5A replicon; assay: Resistance mutant replicon assay, genotype 3a NS5A Y93H; assay type: cell-based, HCV; conditions: Hepatitis C virus, read-out: 3a Y93H (nM)
Procedure, shortened: as §2

[10] = test system: Y93N in genotype 1a NS5A replicon; assay: Resistance mutant replicon assay, genotype 1a NS5A Y93N; assay type: cell-based, HCV; conditions: Hepatitis C virus, read-out: 1a Y93N (nM)
Procedure, shortened: as §2

[11] = test system: L31V/Y93H in genotype 1b NS5A replicon; assay: Resistance mutant replicon assay, genotype 1b NS5A L31V/Y93H; assay type: cell-based, HCV; conditions: Hepatitis C virus, read-out: 1b L31V/Y93H (nM)
Procedure, shortened: as §2

| SMILES | EC50 [1] [nM] | EC50 [2] [nM] | EC50 [3] [nM] | EC50 [4] [nM] | EC50 [5] [nM] | EC50 [6] [nM] | EC50 [7] [nM] | EC50 [8] [nM] | EC50 [9] [nM] | EC50 [10] [nM] | EC50 [11] [nM] |
| --- | --- | --- | --- | --- | --- | --- | --- | --- | --- | --- | --- |
| CC[C@H]1CC[C@@H](c2nc3ccc4cc5c(cc4c3[nH]2)OCc2cc(-c3cnc([C@@H]4CC[C@H](C)N4C(=O)[C@@H](NC(=O)OC)C(C)C)[nH]3)ccc2-5)N1C(=O)[C@@H](NC(=O)OC)C1CCOCC1 [Comp 3, reference compound] | 0.026 | 0.021 | 0.061 | 0.095 | 0.065 | 0.014 | 0.526 | 2.54 | 14.1 |  |  |
| CC[C@H](C)[C@H](NC(=O)OC)C(=O)N1[C@@H](C)CC[C@H]1c1ncc(-c2ccc3c(c2)COc2cc4c(ccc5nc([C@@H]6CC[C@H](C)N6C(=O)[C@@H](NC(=O)OC)C6CCOCC6)[nH]c54)cc2-3)[nH]1 [Comp 4, reference compound] | 0.028 | 0.023 | 0.026 | 0.074 | 0.043 | 0.021 | 0.432 | 0.978 | 0.695 | 1.06 |  |
| CC[C@H](C)[C@H](NC(=O)OC)C(=O)N1[C@@H](C)CC[C@H]1c1nc2ccc3cc4c(cc3c2[nH]1)OCc1cc(-c2cnc([C@@H]3CC[C@H](C)N3C(=O)[C@@H](NC(=O)OC)C3CCOCC3)[nH]2)ccc1-4 [Comp 12, reference compound] | 0.022 | 0.013 | 0.032 | 0.07 | 0.026 | 17.7 |  | 1.24 | 17.7 | 1.38 | 0.097 |
| COC(=O)N[C@H](C(=O)N1[C@@H](C)CC[C@H]1c1nc2ccc3cc4c(cc3c2[nH]1)OCc1cc(-c2cnc([C@@H]3CC[C@H](C)N3C(=O)[C@@H](NC(=O)OC)[C@H]3C[C@@H](C)O[C@@H](C)C3)[nH]2)ccc1-4)C(C)C [Example AO, Methyl {(2S)-1-[(2S,5S)-2-(9-{2-[(2S,5S)-1-{(2S)-2-[(2R,6S)-2,6-dimethyltetrahydro-2H-pyran-4-yl]-2-[(methoxycarbonyl)amino]acetyl}-5-methylpyrrolidin-2-yl]-1H-imidazol-5-yl}-1,11-dihydroisochromeno[4′,3′:6,7]naphtho[1,2-d]imidazol-2-yl)-5-methylpyrrolidin-1-yl]-3-methyl-1-oxobutan-2-yl}carbamate] | 0.015 | 0.012 | 0.017 | 0.045 | 0.021 | 0.018 | 1.78 |  | 9.06 | 9.03 | 17.5 |
| COC(=O)N[C@H](C(=O)N1[C@@H](C)CC[C@H]1c1ncc(-c2ccc3c(c2)COc2cc4c(ccc5nc([C@@H]6CC[C@H](C)N6C(=O)[C@@H](NC(=O)OC)[C@H]6C[C@@H](C)O[C@@H](C)C6)[nH]c54)cc2-3)[nH]1)C(C)C [Example AM, Methyl {(2S)-1-[(2S,5S)-2-(5-{2-[(2S,5S)-1-{(2S)-2-[(2R,6S)-2,6-dimethyltetrahydro-2H-pyran-4-yl]-2-[(methoxycarbonyl)amino]acetyl}-5-methylpyrrolidin-2-yl]-1,11-dihydroisochromeno[4′,3′:6,7]naphtho[1,2-d]imidazol-9-yl}-1H-imidazol-2-yl)-5-methylpyrrolidin-1-yl]-3-methyl-1-oxobutan-2-yl}carbamate] | 0.014 | 0.009 | 0.008 | 0.023 | 0.011 | 0.01 | 1.21 |  | 8.06 | 4.65 | 11.6 |
| COC(=O)N[C@H](C(=O)N1[C@@H](C)CC[C@H]1c1nc2ccc3cc4c(cc3c2[nH]1)OCc1cc(-c2cnc([C@@H]3CC[C@H](C)N3C(=O)[C@@H](NC(=O)OC)C3C[C@@H](C)O[C@H](C)C3)[nH]2)ccc1-4)C(C)C (stereo partly drawn) [Example AS] | 0.045 | 0.026 | 0.015 | 0.064 | 0.051 | 0.024 | 0.115 | 0.148 | 0.732 | 0.325 | 2.03 |
| COC(=O)N[C@H](C(=O)N1[C@@H](C)CC[C@H]1c1ncc(-c2ccc3c(c2)COc2cc4c(ccc5nc([C@@H]6CC[C@H](C)N6C(=O)[C@@H](NC(=O)OC)C6C[C@@H](C)O[C@H](C)C6)[nH]c54)cc2-3)[nH]1)C1C[C@@H](C)O[C@H](C)C1 (stereo partly drawn) [Example AU, Methyl {(1S)-1-[(2R,6R)-2,6-dimethyltetrahydro-2H-pyran-4-yl]-2-[(2S,5S)-2-(5-{2-[(2S,5S)-1-{(2S)-2-[(2R,6R)-2,6-dimethyltetrahydro-2H-pyran-4-yl]-2-[(methoxycarbonyl)amino]acetyl}-5-methylpyrrolidin-2-yl]-1,11-dihydroisochromeno[4′,3′:6,7]naphtho[1,2-d]imidazol-9-yl}-1H-imidazol-2-yl)-5-methylpyrrolidin-1-yl]-2-oxoethyl}carbamate] | 0.039 | 0.029 | 0.008 | 0.023 | 0.029 | 0.017 | 0.042 | 0.026 | 0.13 | 0.089 | 0.059 |
| COC(=O)N[C@H](C(=O)N1[C@@H](C)CC[C@H]1c1ncc(-c2ccc3c(c2)COc2cc4c(ccc5nc([C@@H]6CC[C@H](C)N6C(=O)[C@@H](NC(=O)OC)C6CC(C)O[C@H](C)C6)[nH]c54)cc2-3)[nH]1)C(C)C (stereo in doubt) [Example AQ, Methyl {(2S)-1-[(2S,5S)-2-(5-{2-[(2S,5S)-1-{(2S)-2-[(2R,6R)-2,6-dimethyltetrahydro-2H-pyran-4-yl]-2-[(methoxycarbonyl)amino]acetyl}-5-methylpyrrolidin-2-yl]-1,11-dihydroisochromeno[4′,3′:6,7]naphtho[1,2-d]imidazol-9-yl}-1H-imidazol-2-yl)-5-methylpyrrolidin-1-yl]-3-methyl-1-oxobutan-2-yl}carbamate] | 0.029 | 0.019 | 0.011 | 0.032 | 0.017 | 0.012 | 0.074 | 0.206 | 0.703 | 0.337 | 0.908 |
| CC[C@H](C)[C@H](NC(=O)OC)C(=O)N1[C@@H](C)CC[C@H]1c1ncc(-c2ccc3c(c2)COc2cc4c(ccc5nc([C@@H]6CC[C@H](C)N6C(=O)[C@@H](NC(=O)OC)C6C[C@@H](C)O[C@H](C)C6)[nH]c54)cc2-3)[nH]1 (stereo partly drawn) [Example AA, Methyl {(2S,3S)-1-[(2S,5S)-2-(5-{2-[(2S,5S)-1-{(2S)-2-[(2R,6R)-2,6-dimethyltetrahydro-2H-pyran-4-yl]-2-[(methoxycarbonyl)amino]acetyl}-5-methylpyrrolidin-2-yl]-1,11-dihydroisochromeno[4′,3′:6,7]naphtho[1,2-d]imidazol-9-yl}-1H-imidazol-2-yl)-5-methylpyrrolidin-1-yl]-3-methyl-1-oxopentan-2-yl}carbamate] | 0.017 | 0.016 | 0.006 | 0.029 | 0.014 | 0.008 | 0.145 | 0.322 | 0.544 | 0.57 | 0.498 |
| COC[C@H]1C[C@@H](c2ncc(-c3ccc4c(c3)COc3cc5c(ccc6nc([C@@H]7CC[C@H](C)N7C(=O)[C@@H](NC(=O)OC)C7C[C@@H](C)O[C@H](C)C7)[nH]c65)cc3-4)[nH]2)N(C(=O)[C@@H](NC(=O)OC)C2C[C@@H](C)O[C@H](C)C2)C1 (stereo partly drawn) [Example BH, Methyl {(1S)-1-[(2R,6R)-2,6-dimethyltetrahydro-2H-pyran-4-yl]-2-[(2S,5S)-2-(9-{2-[(2S,4S)-1-{(2S)-2-[(2R,6R)-2,6-dimethyltetrahydro-2H-pyran-4-yl]-2-[(methoxycarbonyl)amino]acetyl}-4-(methoxymethyl)pyrrolidin-2-yl]-1H-imidazol-5-yl}-1,11-dihydroisochromeno[4′,3′:6,7]naphtho[1,2-d]imidazol-2-yl)-5-methylpyrrolidin-1-yl]-2-oxoethyl}carbamate] | 0.118 | 0.053 | 0.055 | 0.027 | 0.056 | 0.024 |  | 0.04 | 0.612 | 0.082 |  |
